From patent US20180186742A1, “PICOLINAMIDES AS FUNGICIDES” (Dow AgroSciences LLC, priority 2017, published 2018)
Like-named read-outs stand apart in the source and are kept apart here.

What was measured:
Type in all cases: in vivo
Puccinia triticina = test: Wheat brown rust (PUCCRT), disease control on wheat seedlings; details: for pest or weed control at 121.5 g/ha: low volume application at 121.5 g/H; for pest or weed control at 100 ppm: high volume application at 100 ppm
Procedure, shortened: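 Compounds in acetone, diluted with nine volumes of water containing 110 ppm Triton X-100, sprayed to run-off on first-leaf Yuma wheat seedlings; track-spray tests used EC formulations with 0.1% Trycol 5941. Puccinia triticina spores applied before or after treatment. Overnight dark dew room at 22° C, 100% humidity, then greenhouse at 24° C.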

Zymoseptoria tritici = test: Leaf blotch of wheat (SEPTTR), disease control on wheat seedlings; details: for pest or weed control at 121.5 g/ha: low volume application at 121.5 g/H; for pest or weed control at 100 ppm: high volume application at 100 ppm
Procedure, shortened: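 Yuma wheat seedlings with the first leaf fully emerged were sprayed to run-off with compound in acetone plus nine volumes of water containing 110 ppm Triton X-100; track-spray tests used EC formulations with 0.1% Trycol 5941. Z. tritici inoculation came before or after treatment, followed by 100% RH dew periods and a 20 °C greenhouse. Percent control was calculated from severity versus untreated plants.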

Phakopsora pachyrhizi = test: Asian soybean rust (PHAKPA), disease control on soybean seedlings; details: High volume application at 25 ppm
Experimental: Technical grades of materials were dissolved in acetone, which were then mixed with nine volumes of water containing 0.011% Tween 20. The fungicide solutions were applied onto soybean seedlings using an automated booth sprayer to run-off. All sprayed plants were allowed to air dry prior to further handling.
Soybean plants (variety Williams 82) were grown in soil-less Metro mix, with one plant per pot. Two week old seedlings were used for testing. Plants were inoculated either 3 days prior to or 1 day after fungicide treatments. Plants were incubated for 24 h in a dark dew room at 22° C. and 100% relative humidity then transferred to a growth room at 23° C. for disease to develop. Disease severity was assessed on the sprayed leaves.

[1] = 24 h, 1 Day Protectant, wheat brown rust, read-out: PUCCRT 1DP disease control, LV activity
[2] = 72 h, 3 Day Curative, wheat brown rust, read-out: PUCCRT 3DC disease control, LV activity
[3] = 24 h, 1 Day Protectant, wheat leaf blotch, read-out: SEPTTR 1DP disease control, LV activity
[4] = 72 h, 3 Day Curative, wheat leaf blotch, read-out: SEPTTR 3DC disease control, LV activity
[5] = 24 h, 1 Day Protectant, read-out: PHAKPA 1DP disease control rating
[6] = 72 h, 3 Day Curative, read-out: PHAKPA 3DC disease control rating
[7] = 24 h, 1 Day Protectant, read-out: PUCCRT disease control, 1DP, LV activity
[8] = 72 h, 3 Day Curative, read-out: PUCCRT disease control, 3DC, LV activity
[9] = 24 h, 1 Day Protectant, read-out: SEPTTR disease control, 1DP, LV activity
[10] = 72 h, 3 Day Curative, read-out: SEPTTR disease control, 3DC, LV activity

Row | Structure (SMILES) | pest or weed control at 121.5 g/ha (Puccinia triticina; [1]) | pest or weed control at 121.5 g/ha (Puccinia triticina; [2]) | pest or weed control at 121.5 g/ha (Zymoseptoria tritici; [3]) | pest or weed control at 121.5 g/ha (Zymoseptoria tritici; [4]) | pest or weed control at 25 ppm (Phakopsora pachyrhizi; [5]) | pest or weed control at 25 ppm (Phakopsora pachyrhizi; [6]) | pest or weed control at 121.5 g/ha (Puccinia triticina; [7]) | pest or weed control at 121.5 g/ha (Puccinia triticina; [8]) | pest or weed control at 121.5 g/ha (Zymoseptoria tritici; [9]) | pest or weed control at 121.5 g/ha (Zymoseptoria tritici; [10]) | pest or weed control at 100 ppm (Puccinia triticina; 24 h, 1 Day Protectant, read-out: PUCCRT disease control, 1DP, HV activity) | pest or weed control at 100 ppm (Puccinia triticina; 72 h, 3 Day Curative, read-out: PUCCRT disease control, 3DC, HV activity) | pest or weed control at 100 ppm (Zymoseptoria tritici; 24 h, 1 Day Protectant, read-out: SEPTTR disease control, 1DP, HV activity) | pest or weed control at 100 ppm (Zymoseptoria tritici; 72 h, 3 Day Curative, read-out: SEPTTR disease control, 3DC, HV activity)
1 | COc1ccnc(C(=O)N[C@@H](C)C(=O)O[C@@H](C)[C@H](c2ccc(C)cc2F)C(C)C)c1OC(C)=O [Compound 366] | > 80% | > 80% | < 80% | < 80% | > 80% | < 80% | – | – | – | – | – | – | – | –
2 | COc1cc(F)ccc1[C@@H](C(C)C)[C@H](C)OC(=O)[C@H](C)NC(=O)c1nccc(OC)c1OC(C)=O [Compound 221] | – | – | – | – | < 80% | < 80% | < 80% | < 80% | < 80% | > 80% | – | – | – | –
3 | COc1ccnc(C(=O)N[C@@H](C)C(=O)O[C@@H](C)[C@@H](c2ccc(C)cc2C)C(C)C)c1OC(C)=O [Compound 200] | – | – | – | – | < 80% | < 0% | < 80% | < 80% | < 0% | < 80% | – | – | – | –
4 | COc1ccnc(C(=O)N[C@@H](CC(C)C)C(=O)O[C@@H](C)[C@H](c2ccc(F)cc2C)C(C)C)c1OC(C)=O [Compound 349] | – | – | – | – | > 80% | < 80% | > 80% | < 80% | < 80% | < 80% | – | – | – | –
5 | COc1cc[n+]([O-])c(C(=O)N[C@@H](C)C(=O)O[C@@H](C)[C@@H](c2ccc(C)cc2C)C(C)C)c1O [Compound 211] | – | – | – | – | < 80% | < 0% | < 0% | < 0% | < 80% | < 0% | < 80% | < 0% | < 80% | < 80%
6 | COc1cc(F)ccc1[C@H](C1CCC1)[C@H](C)OC(=O)[C@H](C)NC(=O)c1nccc(OC)c1OCOC(C)=O [Compound 236] | – | – | – | – | > 80% | < 80% | < 80% | < 80% | < 80% | < 80% | – | – | – | –
7 | COc1ccnc(C(=O)N[C@@H](C)C(=O)O[C@@H](C)[C@@H](c2ccc(F)cc2C)C2CCCC2)c1OCOC(C)=O [Compound 193] | – | – | – | – | < 80% | < 80% | < 80% | < 80% | < 0% | < 80% | – | – | – | –
8 | COc1ccnc(C(=O)N[C@@H](C)C(=O)O[C@@H](C)[C@@H](c2ccc(F)cc2C)C2CCCCC2)c1OCOC(C)=O [Compound 194] | – | – | – | – | < 80% | < 80% | < 80% | < 0% | < 80% | > 80% | – | – | – | –
9 | CCC(C)[C@@H](c1ccc(F)cc1C)[C@H](C)OC(=O)[C@H](C)NC(=O)c1nccc(OC)c1OCOC(C)=O (stereo partly shown) [Compound 196] | – | – | – | – | > 80% | < 80% | > 80% | > 80% | > 80% | > 80% | – | – | – | –
10 | CCC(C)[C@@H](c1ccc(F)cc1OC)[C@H](C)OC(=O)[C@H](C)NC(=O)c1nccc(OC)c1OC(C)=O (stereo partly shown) [Compound 230] | – | – | – | – | > 80% | < 80% | > 80% | > 80% | > 80% | < 80% | – | – | – | –
11 | COc1ccnc(C(=O)N[C@@H](C)C(=O)O[C@@H](C)[C@H](c2ccc(OC(C)C)cc2)C(C)C)c1OC(C)=O [Compound 377] | > 80% | < 80% | < 80% | < 80% | < 80% | < 80% | – | – | – | – | – | – | – | –
12 | COc1cc(F)ccc1[C@@H](C1CCCCC1)[C@H](C)OC(=O)[C@H](C)NC(=O)c1nccc(OC)c1OC(C)=O [Compound 223] | – | – | – | – | < 80% | < 0% | < 80% | < 80% | > 80% | > 80% | – | – | – | –
13 | COc1ccnc(C(=O)N[C@@H](C)C(=O)O[C@@H](C)[C@H](c2ccc3c(c2)OCO3)C(C)C)c1OC(C)=O [Compound 380] | > 80% | > 80% | < 80% | < 80% | < 80% | < 80% | – | – | – | – | – | – | – | –
14 | COc1ccnc2c(=O)n([C@@H](C)C(=O)O[C@@H](C)[C@@H](c3ccc(C)cc3C)C3CCCCC3)c(=O)oc12 [Compound 210] | – | – | – | – | < 80% | < 80% | < 80% | < 0% | > 80% | < 80% | – | – | – | –
15 | COc1ccnc(C(=O)N[C@@H](C)C(=O)O[C@@H](C)[C@@H](c2ccc(Cl)cc2Cl)C(C)C)c1OC(C)=O [Compound 370] | < 80% | < 0% | < 80% | < 80% | < 80% | < 80% | – | – | – | – | – | – | – | –
16 | COc1ccnc(C(=O)N[C@@H](C)C(=O)O[C@@H](C)[C@H](c2cc(C)ccc2C)C(C)C)c1OC(C)=O [Compound 358] | – | – | – | – | > 80% | < 80% | > 80% | < 80% | < 80% | < 80% | – | – | – | –
17 | COc1cc(F)ccc1[C@H](C1CCCCC1)[C@H](C)OC(=O)[C@H](C)NC(=O)c1nccc(OC)c1OC(C)=O [Compound 227] | – | – | – | – | > 80% | < 80% | > 80% | > 80% | > 80% | > 80% | – | – | – | –
18 | COc1ccnc(C(=O)N[C@@H](C)C(=O)O[C@@H](C)[C@H](c2ccc(F)cc2C)C2CCCC2)c1OCOC(C)=O [Compound 195] | – | – | – | – | > 80% | < 80% | > 80% | > 80% | > 80% | > 80% | – | – | – | –
19 | COc1ccnc(C(=O)N[C@@H](C)C(=O)O[C@@H](C)[C@@H](c2ccc(C)cc2C)C2CCCC2)c1OCOC(C)=O [Compound 205] | – | – | – | – | < 80% | < 0% | > 80% | < 0% | < 80% | < 80% | – | – | – | –
20 | COc1ccc([C@H](C(C)C)[C@H](C)OC(=O)[C@H](C)NC(=O)c2nccc(OC)c2OCOC(C)=O)cc1 [Compound 382] | > 80% | > 80% | < 80% | > 80% | > 80% | < 80% | – | – | – | – | – | – | – | –
21 | COc1ccnc(C(=O)N[C@@H](C)C(=O)O[C@H](C)[C@H](c2ccc(F)cc2C)C2CCCCC2)c1OCOC(C)=O [Compound 199] | – | – | – | – | < 80% | < 80% | < 80% | < 0% | > 80% | < 80% | – | – | – | –
22 | COc1cc(F)ccc1[C@H](C(C)C)[C@H](C)OC(=O)[C@H](C)NC(=O)c1nccc(OC)c1OC(C)=O [Compound 232] | – | – | – | – | > 80% | > 80% | > 80% | > 80% | > 80% | < 80% | – | – | – | –
